Reference: patent publication US11795460B2, “Compositions and methods for TTR gene editing and treating ATTR amyloidosis” (Intellia Therapeutics, Inc., priority 2017, dated 2023)

How the values were obtained:
[1] = tested on: TTR; experiment: TTR editing in primary human hepatocytes transfected with Spy Cas9 mRNA and dgRNAs (Table 9); format: cell-based; conditions: dgRNA co-transfected with Spy Cas9 mRNA (SEQ ID NO:2)
Method in brief: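 PHH sequentially lipofected with Spy Cas9 mRNA (100 ng), then crRNA plus tracrRNA (25 nM each) dual-guide lipoplex. Cells harvested 24, 48 or 72 h post-transfection; TTR target amplicons sequenced on Illumina MiSeq, editing given as percent reads with indels or substitutions over total reads.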

[2] = tested on: TTR; experiment: TTR editing in HEK293_Cas9 cells transfected with dgRNAs (Table 4); format: cell-based, human; conditions: HEK293_Cas9 cells (constitutively express Spy Cas9) transfected with dgRNAs
Method in brief: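 Percent editing, taken from amplicon NGS as the fraction of all reads carrying insertions, deletions or substitutions, was measured 24, 48 or 72 h after delivery. Delivery used RNAiMAX lipoplexes of 25 nM each crRNA and trRNA into HEK293 cells stably expressing Spy Cas9.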

[3] = tested on: TTR; experiment: TTR editing in primary human hepatocytes electroporated with Spy Cas9 protein loaded with dgRNAs (Table 7); format: cell-based; conditions: dgRNA electroporated with Spy Cas9 protein (RNP)
Method in brief: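 Editing efficiency is the fraction of NGS reads carrying insertions, deletions or substitutions at the TTR target, measured on MiSeq amplicons from DNA harvested 24, 48 or 72 h post-delivery. Cas9–dgRNA ribonucleoprotein was nucleofected (P3 buffer, EX-147) into primary human or cyno hepatocytes.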

[4] = tested on: TTR; experiment: TTR editing in HepG2 cells transfected with Spy Cas9 mRNA and dgRNAs (Table 6); format: cell-based, human; conditions: HepG2 cells co-transfected with Spy Cas9 mRNA (SEQ ID NO:2) and dgRNAs
Method in brief: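 Percent editing is the share of sequencing reads at the TTR target locus that carry insertions, deletions or substitutions, measured by Illumina amplicon sequencing aligned to hg38. Samples came from HepG2 cells lipofected first with 100 ng Cas9 mRNA and then with dual-guide RNA (25 nM crRNA/tracer), collected 24–72 h later.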

| Sequence | Avg % Deletion [1] [%] | Avg % Edit [1] [%] | Avg % Insert [1] [%] | Avg % Deletion [2] [%] | Avg % Edit [2] [%] | Avg % Insert [2] [%] | Avg % Deletion [3] [%] | Avg % Edit [3] [%] | Avg % Insert [3] [%] | Avg % Deletion [4] [%] | Avg % Edit [4] [%] | Avg % Insert [4] [%] |
| --- | --- | --- | --- | --- | --- | --- | --- | --- | --- | --- | --- | --- |
| UCUAGAACUUUGACCAUCAG (tested as dual guide RNA, chemistry not given here) [CR003345] | 18.45 | 50.65 | 32.30 | 16.01 | 35.02 | 19.00 | 13.57 | 48.07 | 34.53 | 4.45 | 10.58 | 6.12 |
| UGGACUGGUAUUUGUGUCUG (tested as dual guide RNA, chemistry not given here) [CR003340] | 23.17 | 24.97 | 1.83 | 14.50 | 42.38 | 27.88 | 6.50 | 12.03 | 5.60 | 31.65 | 37.76 | 6.12 |
| UGUAGAAGGGAUAUACAAAG (tested as dual guide RNA, chemistry not given here) [CR003365] | 6.67 | 26.90 | 20.23 | 24.61 | 36.43 | 11.83 | 6.83 | 42.37 | 35.57 | 11.11 | 46.88 | 35.77 |
| UUCUUUGGCAACUUACCCAG (tested as dual guide RNA, chemistry not given here) [CR003357] | 0.63 | 25.93 | 25.30 | 37.85 | 43.23 | 5.38 | 0.77 | 36.23 | 35.47 | 3.46 | 45.83 | 42.37 |
| UUUGACCAUCAGAGGACACU (tested as dual guide RNA, chemistry not given here) [CR003344] | 9.20 | 31.50 | 22.40 | 29.54 | 33.87 | 4.32 | 6.10 | 39.40 | 33.30 | 3.62 | 33.43 | 29.81 |
